# Patent publication US9073855B2, “BCL-2 selective apoptosis-inducing agents for the treatment of cancer and immune diseases” (AbbVie Inc., priority 2008, dated 2015)
# Molecular target: GST-Bcl-2 (Homo sapiens, UniProt P10415)
# Test: TR-FRET binding assay, GST-Bcl-2 with F-Bak peptide probe
# Details: TR-FRET Binding Affinity
# Experimental: Tb-anti-GST antibody was purchased from Invitrogen (Catalog No. PV4216).
# Representative compounds were serially diluted in dimethyl sulfoxide (DMSO) starting at 50 μM (2× starting concentration; 10% DMSO) and 10 μL were transferred into a 384-well plate.
# The samples were then mixed on a shaker for 1 minute and incubated for an additional 3 hours at room temperature. For each assay, the probe/antibody and protein/probe/antibody were included on each assay plate as negative and positive controls, respectively. Fluorescence was measured on the ENVISION plate reader (Perkin Elmer) using a 340/35 nm excitation filter and 520/525 (F-Bak peptide) and 495/510 nm (Tb-labeled […] antibody) emission filters.
# The inhibition constant (Ki) is the dissociation constant of an enzyme-inhibitor complex or a protein/small molecule complex, wherein the small molecule is inhibiting binding of one protein to another protein or peptide. […] Inhibition constants were determined using Wang's equation (Wang Z-X., An Exact Mathematical Expression For Describing Competitive Binding Of Two Different Ligands To A Protein Molecule. FEBS Lett. 1995, 360:111-4).
# Chain of GST-Bcl-2 (P10415 whole entry): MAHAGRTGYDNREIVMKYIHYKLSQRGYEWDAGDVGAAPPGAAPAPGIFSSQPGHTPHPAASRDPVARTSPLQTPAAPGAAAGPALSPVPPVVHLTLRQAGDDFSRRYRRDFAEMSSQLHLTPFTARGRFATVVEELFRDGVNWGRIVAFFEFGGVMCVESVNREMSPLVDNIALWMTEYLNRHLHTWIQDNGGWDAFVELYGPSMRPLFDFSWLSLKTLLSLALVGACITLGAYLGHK
row,SMILES,Ki
1,"CN1[C@@H]2CC[C@H]1CC(Nc1ccc(S(=O)(=O)NC(=O)c3ccc(N4CCN(CC5=C(c6ccc(Cl)cc6)CC(C)(C)CC5)CC4)cc3Oc3ccc4[nH]ccc4c3)cc1[N+](=O)[O-])C2 (stereo partly drawn) [Example 467, 4-(4-{[2-(4-chlorophenyl)-4,4-dimethylcyclohex-1-en-1-yl]methyl}piperazin-1-yl)-2-(1H-indol-5-yloxy)-N-[(4-{[(1R,5S)-8-methyl-8-azabicyclo[3.2.1]oct-3-yl]amino}-3-nitrophenyl)sulfonyl]benzamide]",0.08 nM
2,"COCC1(C)CCC(c2ccc(Cl)cc2)=C(CN2CCN(c3ccc(C(=O)NS(=O)(=O)c4cnc(OCC5CCC(C)(O)CC5)c(Cl)c4)c(Oc4cccc5[nH]ncc45)c3)CC2)C1 (stereo not drawn) [Example 539, N-({5-chloro-6-[(trans-4-hydroxy-4-methylcyclohexyl)methoxy]pyridin-3-yl}sulfonyl)-4-(4-{[2-(4-chlorophenyl)-5-(methoxymethyl)-5-methylcyclohex-1-en-1-yl]methyl}piperazin-1-yl)-2-(1H-indazol-4-yloxy)benzamide]",< 0.01 nM
3,"CC1(C)CCC(CN2CCN(c3ccc(C(=O)NS(=O)(=O)c4ccc(NC[C@H]5CN(C6COC6)CCO5)c([N+](=O)[O-])c4)c(Oc4cccc5[nH]ncc45)c3)CC2)=C(c2ccc(Cl)cc2)C1 [Example 540, 4-(4-{[2-(4-chlorophenyl)-4,4-dimethylcyclohex-1-en-1-yl]methyl}piperazin-1-yl)-2-(1H-indazol-4-yloxy)-N-{[3-nitro-4-({[(2S)-4-(oxetan-3-yl)morpholin-2-yl]methyl}amino)phenyl]sulfonyl}benzamide]",< 0.01 nM
4,"CC1(C)CCC(CN2CCN(c3ccc(C(=O)NS(=O)(=O)c4ccc(NC[C@H]5CN(C6COC6)CCO5)c([N+](=O)[O-])c4)c(Oc4cccc5[nH]cnc45)c3)CC2)=C(c2ccc(Cl)cc2)C1 [Example 541, 2-(1H-benzimidazol-4-yloxy)-4-(4-{[2-(4-chlorophenyl)-4,4-dimethylcyclohex-1-en-1-yl]methyl}piperazin-1-yl)-N-{[3-nitro-4-({[(2S)-4-(oxetan-3-yl)morpholin-2-yl]methyl}amino)phenyl]sulfonyl}benzamide]",0.167 nM
5,"CC1(C)CCC(CN2CCN(c3ccc(C(=O)NS(=O)(=O)c4cnc(OCC5CCC(C)(O)CC5)c(C#N)c4)c(Oc4cccc5[nH]ncc45)c3)CC2)=C(c2ccc(Cl)cc2)C1 (stereo not drawn) [Example 544, 4-(4-{[2-(4-chlorophenyl)-4,4-dimethylcyclohex-1-en-1-yl]methyl}piperazin-1-yl)-N-({5-cyano-6-[(trans-4-hydroxy-4-methylcyclohexyl)methoxy]pyridin-3-yl}sulfonyl)-2-(1H-indazol-4-yloxy)benzamide]",< 0.01 nM
6,"CC1(C)CCC(CN2CCN(c3ccc(C(=O)NS(=O)(=O)c4cnc(OCC5(F)CCC(C#N)CC5)c(Cl)c4)c(Oc4cccc5[nH]ncc45)c3)CC2)=C(c2ccc(Cl)cc2)C1 (stereo not drawn) [Example 549, N-({5-chloro-6-[(cis-4-cyano-1-fluorocyclohexyl)methoxy]pyridin-3-yl}sulfonyl)-4-(4-{[2-(4-chlorophenyl)-4,4-dimethylcyclohex-1-en-1-yl]methyl}piperazin-1-yl)-2-(1H-indazol-4-yloxy)benzamide]",< 0.01 nM
7,"COC1(C)CCC(c2ccc(Cl)cc2)=C(CN2CCN(c3ccc(C(=O)NS(=O)(=O)c4cnc(OCC5CCC(C)(O)CC5)c(Cl)c4)c(Oc4cccc5[nH]ncc45)c3)CC2)C1 (stereo not drawn) [Example 553, N-({5-chloro-6-[(trans-4-hydroxy-4-methylcyclohexyl)methoxy]pyridin-3-yl}sulfonyl)-4-(4-{[2-(4-chlorophenyl)-5-methoxy-5-methylcyclohex-1-en-1-yl]methyl}piperazin-1-yl)-2-(1H-indazol-4-yloxy)benzamide]",< 0.01 nM
